Test results reported in US5959178A, “Modification of lignin synthesis in plants” (Imperial Chemical Industries PLC, priority 1991, dated 1999).

Target: T1, purified poplar OMT (Populus trichocarpa x Populus deltoides, UniProt Q9LWB8)
T1 construct: closely related isoforms co-purify
Experiment: Specific activity of the purified poplar OMT towards O-diphenolic substrates
Assay type: biochemical
Protocol: The specific activity of the purified OMT towards three different O-diphenolic substrates was measured. Using catechol, caffeic acid, and hydroxyferulic acid as substrate, we found an OMT activity of 0, 30, and 15 nkat/mg protein, respectively.

T1 sequence (Q9LWB8 entry or part of it T91I): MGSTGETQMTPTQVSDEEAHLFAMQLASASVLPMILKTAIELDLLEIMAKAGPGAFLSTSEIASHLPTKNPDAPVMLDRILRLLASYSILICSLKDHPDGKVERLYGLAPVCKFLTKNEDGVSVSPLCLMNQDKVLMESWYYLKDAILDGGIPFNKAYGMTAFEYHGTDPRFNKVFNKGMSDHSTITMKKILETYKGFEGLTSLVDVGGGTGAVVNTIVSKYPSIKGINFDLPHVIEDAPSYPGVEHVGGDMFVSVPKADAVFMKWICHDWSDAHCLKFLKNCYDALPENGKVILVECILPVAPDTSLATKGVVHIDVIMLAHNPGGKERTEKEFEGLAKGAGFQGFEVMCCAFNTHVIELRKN

`Oc1ccccc1O` [catechol] was tested, and the “OMT activity (specific activity) with compound as substrate” value was 0 nkat/mg protein.
With `O=C(O)/C=C/c1ccc(O)c(O)c1` [caffeic acid] the “OMT activity (specific activity) with compound as substrate” value was 30 nkat/mg protein.
